Measured values as given in patent US20250099517A1, “Use of Lactobacillus reuteri Y7 strain for prevention or treatment of ocular diseases” (Taipei Medical University, priority 2023, published 2025).

How the values were obtained:
Assay type in all cases: in vivo, C57BL/6 mice
[1] = food intakes of mice during the experiment; settings: for food intakes of mice: LU, lutein 6.15 mg/kg bw oral daily, blue light, Mean±S.E.M., n=6
Description: In the present invention, six-week-old male C57BL/6 mice were placed in a breeding cage in which the following feeding conditions were kept: temperature, 22±2° C., humidity, 55±5%, and the light-dark cycle of 12-hour light and 12-hour dark. The mice were fed with fodders at the adaptive phase for one week; general solid fodders for test animals were administered to mice of the control group and mice during the adaptive phase. The initial day was defined as Day 0 when the adaptive phase for the mice was over. From the next week, the mice were interfered with samples under test and exposed to blue light. During the experiments, the mice were monitored for weights as well as water intakes and checked for any physiological change. The data for experiments through electroretinography (ERG), fndus photography (FP), fundus fluorescein angiograph (FFA), spectral-domain optical coherence tomography (SD-OCT) and intraocular pressure (IOP) were collected at Day 0, Day 21 and Day 35, as shown in FIG. 1 for the experimental process. The C57BL/6 mice, which weighed between 23 and 25 g, were divided into seven groups randomly. In each group, the six mice induced by blue light successfully were incorporated in experiments. The samples dissolved in deuterium-depleted water (DDW) were fed to mice through oral tubes once a day. The groups were named and introduced as follows: • (1) Solvent not classified group (NC): The mice were fed with 0.2 ml deuterium-depleted water (DDW) through tubes; • (2) Negative control group (Blue light (BL)): The mice were fed with 0.2 ml deuterium-depleted water (DDW) through tubes and exposed to blue light; • (3) Low-dosage Y7 probiotics group […]): The mice were fed with low-dosage Y7 probiotics (probiotic counts of 1.0×10^8 CFU/ml dissolved in 0.2 ml DDW per day) and exposed to blue light; • (4) High-dosage Y7 probiotics group […]): The mice were fed with high-dosage Y7 probiotics (probiotic counts of 1.0×10^9 CFU/ml dissolved in 0.2 ml DDW per day) and exposed to blue light; • (5) Positive control group (lutein (LU)): The mice were fed with lutein and exposed to blue light. The recommended human dosage of lutein is 30 mg. The mouse cage (48×25×20 cm) placed inside a stainless ventilated box was equipped with blue light boards as blue light sources around and above. In the experiment of animals exposed to blue light, six-week-old mice staying in the mouse cage were fed with drinking water as well as fodders and exposed to 400 Lux blue light illumination under the light-dark cycle of 12-hour light and 12-hour dark. The experiment was aimed at causing mice' late dry macular disease induced by chronic light injuries for simulating a human being's macular disease after long-term exposure to short-wavelength blue light from 3C products in daily life. All data written as the form of mean±standard error of the mean (S.E.M.) were used in the statistical analysis through the one-way ANOVA and the Newman-Keuls test; p<0.05 denoted statistical difference. In the experiment, the software for the statistical analysis was Graph pad Prism (v9.2.0). The data such as food intake, water intake, body weight, organ weight and other clinical examination data were analyzed with the one-way ANOVA.

total retinal thickness = assay: H&E sections of retinal tissues, total retinal thickness by ImageJ; settings: Day 35, p<0.05
Description: The C57BL/6 mice, which weighed between 23 and 25 g, were divided into seven groups randomly. In each group, the six mice induced by blue light successfully were incorporated in experiments. The samples dissolved in deuterium-depleted water (DDW) were fed to mice through oral tubes once a day. The groups were named and introduced as follows: • (1) Solvent not classified group (NC): The mice were fed with 0.2 ml deuterium-depleted water (DDW) through tubes; • (2) Negative control group (Blue light (BL)): The mice were fed with 0.2 ml deuterium-depleted water (DDW) through tubes and exposed to blue light; • (3) Low-dosage Y7 probiotics group […]): The mice were fed with low-dosage Y7 probiotics (probiotic counts of 1.0×10^8 CFU/ml dissolved in 0.2 ml DDW per day) and exposed to blue light; • (4) High-dosage Y7 probiotics group […]): The mice were fed with high-dosage Y7 probiotics (probiotic counts of 1.0×10^9 CFU/ml dissolved in 0.2 ml DDW per day) and exposed to blue light; • (5) Positive control group (lutein (LU)): The mice were fed with lutein and exposed to blue light. The recommended human dosage of lutein is 30 mg. The mouse cage (48×25×20 cm) placed inside a stainless ventilated box was equipped with blue light boards as blue light sources around and above. In the experiment of animals exposed to blue light, six-week-old mice staying in the mouse cage were fed with drinking water as well as fodders and exposed to 400 Lux blue light illumination under the light-dark cycle of 12-hour light and 12-hour dark. The experiment was aimed at causing mice' late dry macular disease induced by chronic light injuries for simulating a human being's macular disease after long-term exposure to short-wavelength blue light from 3C products in daily life. The eyes of a mouse sacrificed after the experiment on Day 35 were taken out for H&E stains. The section of a retinal tissue was checked for any change in each layer of a sacrificed mouse's retina and compared with experimental results of SD-OCT. The images for a fraction of retina below the pupil vertically and nearest to optic nerves were captured from a section through the 200× magnification, as shown in FIG. 6a.

catalase (CAT) = assay: serum antioxidant enzyme activity by ELISA: CAT
Description: The C57BL/6 mice, which weighed between 23 and 25 g, were divided into seven groups randomly. In each group, the six mice induced by blue light successfully were incorporated in experiments. The samples dissolved in deuterium-depleted water (DDW) were fed to mice through oral tubes once a day. The groups were named and introduced as follows: • (1) Solvent not classified group (NC): The mice were fed with 0.2 ml deuterium-depleted water (DDW) through tubes; • (2) Negative control group (Blue light (BL)): The mice were fed with 0.2 ml deuterium-depleted water (DDW) through tubes and exposed to blue light; • (3) Low-dosage Y7 probiotics group (Y7L): The mice were fed with low-dosage Y7 probiotics (probiotic counts of 1.0×10^8 CFU/ml dissolved in 0.2 ml DDW per day) and exposed to blue light; • (4) High-dosage Y7 probiotics group (Y7H): The mice were fed with high-dosage Y7 probiotics (probiotic counts of 1.0×10^9 CFU/ml dissolved in 0.2 ml DDW per day) and exposed to blue light; • (5) Positive control group (lutein (LU)): The mice were fed with lutein and exposed to blue light. The recommended human dosage of lutein is 30 mg.
The mouse cage (48×25×20 cm) placed inside a stainless ventilated box was equipped with blue light boards as blue light sources around and above. […]
The performance of antioxidant enzymes in serums was analyzed through the enzyme-linked immunosorbent assay (ELISA).

| food intakes of mice ([1]; Day7) | food intakes of mice ([1]; Day14) | food intakes of mice ([1]; Day21) | food intakes of mice ([1]; Day28) | food intakes of mice ([1]; Day35) | food intakes compared with the BL group ([1]; mouse, in vivo) | Compound | total retinal thickness compared with the BL group (total retinal thickness; LU lutein group) | total retinal thickness compared with the NC group (total retinal thickness; LU lutein group) | total retinal thickness compared with the BL group (total retinal thickness; Y7H high-dosage group) | total retinal thickness compared with the NC group (total retinal thickness; Y7H high-dosage group) | total retinal thickness compared with the BL group (total retinal thickness; Y7L low-dosage group) | total retinal thickness compared with the NC group (total retinal thickness; Y7L low-dosage group) | activity of catalase (CAT) compared with the BL group (catalase (CAT); Y7H high-dosage group) | activity of catalase (CAT) compared with the BL group (catalase (CAT); Y7L low-dosage group) |
| --- | --- | --- | --- | --- | --- | --- | --- | --- | --- | --- | --- | --- | --- | --- |
| 5.71 ± 1.17 | 4.17 ± 1.15 | 5.04 ± 1.82 | 5.33 ± 2.17 | 4.43 ± 2.12 |  | CC1=C[C@H](O)CC(C)(C)[C@H]1/C=C/C(C)=C/C=C/C(C)=C/C=C/C=C(C)/C=C/C=C(C)/C=C/C1=C(C)C[C@@H](O)CC1(C)C [lutein, reference compound] | significant difference | decreased significantly |  |  |  |  |  |  |
|  |  |  |  |  | significantly higher | Lactobacillus reuteri Y7 [Y7 probiotics] |  |  | significant difference | decreased significantly | significant difference | decreased significantly | increased significantly | increased significantly |
